Measurements from article PMC8623179, “Design and Microwave Synthesis of New (5Z) 5-Arylidene-2-thioxo-1,3-thiazolinidin-4-one and (5Z) 2-Amino-5-arylidene-1,3-thiazol-4(5H)-one as New Inhibitors of Protein Kinase DYRK1A” (Pharmaceuticals, 2021).
pIC50: −log10 of the molar value. Several values for one entry are separate records, joined by “and”; a condition that tells them apart may be missing. Identical values can stand only once. Like-named read-outs stand apart in the source and are kept apart here.

Tests used:
DYRK1A [1] = details: reported, cited from earlier work
Casein kinase 1 (CK1δ/ε) [2] = details: read-out: IC50 CK1, positive control, cited from earlier work
GSK-3α/β [3] = details: read-out: IC50 GSK3α/β, positive control, cited from earlier work
DYRK1A [4] = molecular target: T1, DYRK1A (Rattus norvegicus, UniProt Q63470); assay: DYRK1A kinase assay; assay type: biochemical; details: 15 μM ATP
T1 construct: GST; made in house; host or cells: Escherichia coli
Description: (§1) The twenty-two (5Z) 5-arylidene-2-thioxo-1,3-thiazolidin-4-ones 3a–v and the twenty-four (5Z) 2-amino-5-arylidene-1,3-thiazolidin-4(5H)-ones 5a–x were evaluated against four different and representative in vitro kinase assays DYRK1A (dual specificity tyrosine phosphorylation regulated kinase), CK1 δ/e (caseine kinase 1), CDK5/p25 (cyclin dependant kinase), and GSK3 α/β (glycogen synthase kinase 3) to evaluate their inhibition potency. […] All the compounds were initially tested at a 10 μM concentration.
After 30-min incubation at 30 °C, the reaction was stopped by harvesting, using a FilterMate harvester (Packard), onto P81 phospho-cellulose papers (GE Healthcare, Chicago, IL, USA) which were washed in 1% phosphoric acid. Scintillation fluid was added and the radioactivity measured in a Packard counter. Blank values were subtracted and activities calculated as pmoles of phosphate incorporated for the 30-min incubation. The activities were expressed in % of the maximal activity, i.e., in the absence of inhibitors. Controls were performed with appropriate dilutions of DMSO. […]

Casein kinase 1 (CK1δ/ε) [5] = assay: CK1δ/ε kinase assay; assay type: biochemical, porcine; details: 15 μM ATP, read-out: IC50 CK1
Description: as §1
(§2) After 30-min incubation at 30 °C, the reaction was stopped by harvesting, using a FilterMate harvester (Packard), onto P81 phospho-cellulose papers (GE Healthcare, Chicago, IL, USA) which were washed in 1% phosphoric acid. Scintillation fluid was added and the radioactivity measured in a Packard counter. Blank values were subtracted and activities calculated as pmoles of phosphate incorporated for the 30-min incubation. The activities were expressed in % of the maximal activity, i.e., in the absence of inhibitors. Controls were performed with appropriate dilutions of DMSO.
Casein kinase 1 (CK1δ/ε) (porcine brain, native) was assayed with 0.67 µg of CKS peptide ([…]pSAYSITA), a CK1 specific substrate obtained from Millegen (Labege, France).

CDK5/p25 = molecular target: T2, CDK5/p25 (Homo sapiens, UniProt Q00535); assay: CDK5/p25 kinase assay; assay type: biochemical; details: 15 μM ATP
T2 construct: made in house
T2 sequence (Q00535 whole entry): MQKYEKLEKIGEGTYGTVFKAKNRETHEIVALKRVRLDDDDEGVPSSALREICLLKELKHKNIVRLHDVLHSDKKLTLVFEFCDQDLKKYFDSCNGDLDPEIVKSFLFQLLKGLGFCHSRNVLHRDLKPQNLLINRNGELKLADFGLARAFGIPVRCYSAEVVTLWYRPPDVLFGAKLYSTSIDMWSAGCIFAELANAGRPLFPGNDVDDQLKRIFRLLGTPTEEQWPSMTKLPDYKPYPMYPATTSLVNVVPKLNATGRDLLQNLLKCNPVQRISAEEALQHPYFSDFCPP
T2 sequence (Q15078 99-307 partner limits assumed): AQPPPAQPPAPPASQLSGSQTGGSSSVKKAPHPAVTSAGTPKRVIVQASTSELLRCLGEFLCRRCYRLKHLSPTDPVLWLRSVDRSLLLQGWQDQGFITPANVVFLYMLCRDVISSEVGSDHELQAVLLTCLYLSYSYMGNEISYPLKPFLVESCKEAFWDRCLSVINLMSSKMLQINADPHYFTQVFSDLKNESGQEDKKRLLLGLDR
Description: as §1, §2
CDK5/p25 (human, recombinant) was prepared as previously described. […] ATP (3000 Ci/mmol; 10 mCi/mL) in a final volume of 30 μL. After 30-min incubation at 30 °C, 25 μL aliquots of supernatant were spotted onto 2.5 × 3 cm pieces of Whatman P81 phospho-cellulose paper, and, 20 s later, the filters were washed five times (for at least 5 min each time) in a solution of 10 mL phosphoric acid/litter of water. The wet filters were counted in the presence of 1 mL ACS (Amersham, UK) scintillation fluid.

GSK-3α/β [6] = assay: GSK-3α/β kinase assay; assay type: biochemical, porcine; details: 15 μM ATP, read-out: IC50 GSK3α/β
Description: as §1, §2
GSK-3α/β (porcine brain, native) was assayed, as described for CDK5/p25 but in Buffer A and using a GSK-3 specific substrate (GS-1: […]pEDEEE) (pS stands for phosphorylated serine). GS-1 was synthesized by Millegen (Labege, France).

Huh7 D12 = assay: Cell survival assay, Huh7 D12; assay type: cell-based; details: Huh-7D12; 48 h exposure, nuclei count; read-out: Cell Lines IC50 Huh7 D12
Description: (§3) Skin diploid fibroblastic cells were provided by BIOPREDIC International Company (Rennes, France). […] Cells were grown according to ECACC recommendations. The toxicity test of the compounds on these cells was as follows: 2 × 10^3 cells for HCT-116 cells or 4 × 10^3 for the other cells were seeded in 96-multi-well plates in triplicate and left for 24 h for attachment, spreading and growing. Then, cells were exposed for 48 h to increasing concentrations of the compounds, ranging from […], in a final volume of 120 μL of culture medium. […] The IC50 were graphically determined.

Caco2 = assay: Cell survival assay, Caco2; assay type: cell-based; details: Homo sapiens, Caco-2
Description: as §3

MDA-MB231 = assay: Cell survival assay, MDA-MB231; assay type: cell-based; details: Homo sapiens, MDA-MB-231; 48 h exposure, nuclei count; read-out: Cell Lines IC50 MDA-MB231
Description: as §3

HCT116 = assay: Cell survival assay, HCT116; assay type: cell-based; details: Homo sapiens, HCT-116
Description: as §3

PC3 = assay: Cell survival assay, PC3; assay type: cell-based; details: Homo sapiens, PC-3; 48 h exposure, nuclei count; read-out: Cell Lines IC50 PC3
Description: as §3

NCI-H727 = assay: Cell survival assay, NCI-H727; assay type: cell-based; details: Homo sapiens, 48 h exposure, nuclei count, read-out: Cell Lines IC50 NCI-H727
Description: as §3

Fibroblasts = assay: Cell survival assay, normal skin diploid fibroblasts; assay type: cell-based; details: Fibroblast; normal cells, 48 h exposure, nuclei count; read-out: Cell Lines IC50 Fibroblasts
Description: as §3

[7] = Table 5, same values as Table 4
[8] = 48 h exposure, nuclei count, read-out: Cell Lines IC50 Caco2
[9] = 48 h exposure, nuclei count, read-out: Cell Lines IC50 HCT116

Compound | pIC50 (DYRK1A [1]) | pIC50 (DYRK1A [4]; Table 4) | pIC50 (Casein kinase 1 (CK1δ/ε) [5]; Table 4) | pIC50 (CDK5/p25; Table 4) | pIC50 (GSK-3α/β [6]; Table 4) | melting point [°C] | other results
COc1ccc2c(c1)[nH]c1c(C)nccc12 [Harmine] | […] | – | – | – | – | – | pIC50 (Casein kinase 1 (CK1δ/ε) [2]; Table 4): 5.82; pIC50 (Casein kinase 1 (CK1δ/ε) [2]; [7]): 5.82; pIC50 (GSK-3α/β [3]; Table 4): < 5.00; pIC50 (GSK-3α/β [3]; [7]): < 5.00
Nc1ncc(I)c(-c2c[nH]c3ccccc23)n1 [Meridianine 74] | 7.18 | – | – | – | – | – | –
O=C1NC(=S)S/C1=C\c1cc(Br)c2c(c1)OCO2 [Compound 3i, (5Z)-5-[(7-Bromo-1,3-benzodioxol-5-yl)methylene]-2-thioxo-1,3-thiazolidin-4-one] | – | 6.15 | < 5.00 | < 5.00 | < 5.00 | > 260 | –
O=C1NC(=S)S/C1=C\c1ccc2c(c1)OCCO2 [Compound 3f, (5Z)-5-(2,3-Dihydro-1,4-benzodioxin-6-ylmethylene)-2-thioxo-1,3-thiazolidin-4-one] | – | 7.25 | < 5.00 | < 5.00 | ≥ 5.00 | 250 to 252 | pIC50 (Huh7 D12): < 4.60; pIC50 (Caco2; [8]): < 4.60; pIC50 (MDA-MB231): < 4.60; pIC50 (HCT116; [9]): < 4.60; pIC50 (PC3): < 4.60; pIC50 (NCI-H727): < 4.60; pIC50 (Fibroblasts): < 4.60
CN(Cc1cccs1)c1ncnc2ccc(-c3ccc4c(c3)OCO4)cc12 [VI] | 7.85 | – | – | – | – | – | –
2-(pyridin-3-yl)-1H-indol-6-ol | 7.22 | – | – | – | – | – | –
COc1cc(C)c(-c2c3c4cc(OC)c(O)cc4oc(=O)c3n3ccc4cc(O)c(OC)cc4c23)cc1O [XII] | 7.38 | – | – | – | – | – | –
O=C1NC(=S)S/C1=C\c1cc(O)cc(O)c1 [Compound 3k, (5Z)-5-(3,5-Dihydroxybenzylidene)-2-thioxo-1,3-thiazolidin-4-one] | – | < 5.00 | < 5.00 | < 5.00 | < 5.00 | 230 to 232 | –
Nc1nccc(-c2c[nH]c3nccc(O)c23)n1 [Merioline 2] | 7.54 | – | – | – | – | – | –
O=C1NC(=S)S/C1=C\c1ccc2c(c1)CCO2 [Compound 3g, (5Z)-5-(2,3-Dihydro-benzofuran-5-ylmethylene)-2-thioxo-1,3-thiazolidin-4-one] | – | 7.05 | < 5.00 | < 5.00 | ≤ 5.00 | 250 to 252 | pIC50 (Huh7 D12): < 4.60; pIC50 (Caco2; [8]): < 4.60; pIC50 (Caco2; read-out: IC50 Caco2): 5.10; pIC50 (MDA-MB231): < 4.60; pIC50 (HCT116; [9]): < 4.60; pIC50 (HCT116; read-out: IC50 HCT 116): 5.22; pIC50 (PC3): < 4.60; pIC50 (NCI-H727): < 4.60; pIC50 (Fibroblasts): < 4.60
O=c1oc2ccc(O)cc2c2c1[nH]c1ccc(O)cc12 [XI] | 7.17 | – | – | – | – | – | –
COc1ccc(/C=C2\SC(=S)NC2=O)cc1O [Compound 3b, (5Z)-5-(3-Hydroxy-4-methoxybenzylidene)-2-thioxo-1,3-thiazolidin-4-one] | – | 5.85 | < 5.00 | < 5.00 | < 5.00 | 222 to 224 | pIC50 (Huh7 D12): < 4.60; pIC50 (Caco2; [8]): < 4.60; pIC50 (MDA-MB231): < 4.60; pIC50 (HCT116; [9]): < 4.60; pIC50 (PC3): < 4.60; pIC50 (NCI-H727): < 4.60; pIC50 (Fibroblasts): < 4.60
O=C1NC(Nc2ccccc2)=N/C1=C\c1ccc2c(c1)OCO2 [Leucettine L41] | – | – | – | – | – | – | pIC50 (DYRK1A [1]; Figure 1): 7.40
COc1cc(/C=C2\SC(=S)NC2=O)ccc1O [Compound 3c, (5Z)-5-(4-Hydroxy-3-methoxybenzylidene)-2-thioxo-1,3-thiazolidin-4-one] | – | 7.19 | ≤ 5.00 | – | 5.10 | – | pIC50 (Huh7 D12): < 4.60; pIC50 (Caco2; [8]): < 4.60; pIC50 (MDA-MB231): < 4.60; pIC50 (HCT116; [9]): 4.92; pIC50 (PC3): < 4.60; pIC50 (NCI-H727): < 4.60; pIC50 (Fibroblasts): < 4.60
O=C1NC(=S)S/C1=C\c1cc2ccccc2o1 [Compound 3l, (5Z)-5-(1-Benzofuran-2-ylmethylene)-2-thioxo-1,3-thiazolidin-4-one] | – | 4.82 | < 5.00 | < 5.00 | – | 246 to 250 | –
O=C1NC(=S)S/C1=C\c1ccc2c(c1)OCO2 [Compound 3a, (5Z)-5-(1,3-Benzodioxol-5-ylmethylene)-2-thioxo-1,3-thiazolidin-4-one] | – | 7.15 | < 5.00 | < 5.00 | 5.07 | – | pIC50 (Huh7 D12): < 4.60; pIC50 (Caco2; [8]): < 4.60; pIC50 (MDA-MB231): < 4.60; pIC50 (HCT116; [9]): < 4.60; pIC50 (PC3): < 4.60; pIC50 (NCI-H727): < 4.60; pIC50 (Fibroblasts): < 4.60
c1csc(CNc2ncnc3ccc(-c4ccc5c(c4)OCO5)cc23)c1 [V] | 7.21 | – | – | – | – | – | –
O=C1N=C(N2CCSCC2)S/C1=C\c1ccc2c(c1)OCO2 [Compound 5g, (5Z)-5-(1,3-Benzodioxol-5-ylmethylene)-2-(thiomorpholin-1-yl)-1,3-thiazol-4(5H)-one] | – | – | – | – | – | – | pIC50 (DYRK1A [4]; Table 5): 6.40; pIC50 (Casein kinase 1 (CK1δ/ε) [5]; Table 5): < 5.00; pIC50 (CDK5/p25; Table 5): < 5.00; pIC50 (GSK-3α/β [6]; Table 5): ≤ 5.00
O=C1NC(=S)S/C1=C\c1ccc(O)c(O)c1 [Compound 3j, (5Z)-5-(3,4-Dihydroxybenzylidene)-2-thioxo-1,3-thiazolidin-4-one] | – | < 5.00 | < 5.00 | < 5.00 | < 5.00 | 210 to 212 | –
